# Assay results from PMC4821887, “Identification of chemicals that mimic transcriptional changes associated with autism, brain aging and neurodegeneration” (Nature Communications, 2016).
# Test system: mouse cortical cultures
# Experiment: RNA-seq differential expression (DESeq) against matched vehicle
# Assay type: cell-based
# Design: key to MeanFenamidone Bcl11b / MeanFenamidone Slc12a4 / MeanFenamidone Abca1 / MeanFenamidone Hmox1 / MeanFenamidone Il1rap / MeanFenamidone Cyba / MeanFenamidone Narf / MeanFenamidone Bnip3 / MeanFenamidone Amotl2 / MeanFenamidone Gad2 / MeanFenamidone Vsnl1 / MeanFenamidone Fam178a: DESeq mean of counts over RefSeq exons
# Experimental: Figure 4 Cluster 2 chemicals alter expression of a common set of genes. […] RNA-seq was performed in quadruplicate after treating cortical cultures with fenamidone (10 μM) or pyraclostrobin (0.1 μM) for 24 h (n=3 biological replicates) and compared with matched vehicle controls using DESeq to detect differentially expressed genes, listed in Supplementary Data 4.
# Cultures were treated with the non-cytotoxic dose of each chemical, by exchanging half of the original medium with chemicals at 2 × concentration in prewarmed feeding medium, on DIV 7 for 24 h in 12-well plates at a density of 5 × 10^5 cells per well. RNA was isolated using RNeasy plus mini kit (Cat. #74134, Qiagen). […]. Samples were further assessed for quality using either an Agilent Bioanalyzer 2100 or TapeStation 2200 to obtain a RIN. RIN values exceeding 7 were used for sequencing. RNA samples were used to generate and barcode complementary DNA libraries using the TruSeq RNA Library Preparation Kit at the UNC High Throughput Sequencing Facility. Pools of 24 multiplexed samples were sequenced per lane on an Illumina HiSeq 2500 using 50-bp paired-end reads.
# RNA-seq reads were filtered using TagDust and aligned to the reference mouse genome (mm9) with TopHat using default parameters. Reads aligning to ribosomal RNA genes were removed. Transcript abundance was estimated by computing Reads per kilobase per million mapped reads (RPKM) using RefSeq gene models aggregated by gene symbol. For differential expression analyses, raw counts over RefSeq exons were used, and then were compared across samples using DESeq[62].
structure (smiles),measurement,setting,value
CSC1=N[C@@](C)(c2ccccc2)C(=O)N1Nc1ccccc1 [fenamidone],MeanFenamidone Kirrel,"gene Kirrel, DESeq mean, 4 reps",376.176
same,log2FoldChange Kirrel,"gene Kirrel, vs vehicle, 4 reps",1.966
same,MeanFenamidone Klf3,"gene Klf3, DESeq mean, 4 reps",165.964
same,log2FoldChange Klf3,"gene Klf3, vs vehicle, 4 reps",1.6001
same,MeanFenamidone Lama5,"gene Lama5, DESeq mean, 4 reps",696.831
same,log2FoldChange Lama5,"gene Lama5, vs vehicle, 4 reps",3.008
same,MeanFenamidone Lamc1,"gene Lamc1, DESeq mean, 4 reps",1262.75
same,log2FoldChange Lamc1,"gene Lamc1, vs vehicle, 4 reps",1.942
same,MeanFenamidone Lats2,"gene Lats2, DESeq mean, 4 reps",789.339
same,log2FoldChange Lats2,"gene Lats2, vs vehicle, 4 reps",2.05
same,MeanFenamidone,gene Lgals1,315.526
same,log2FoldChange,gene Lgals1,2.643
same,MeanFenamidone Lgals3,"gene Lgals3, DESeq mean, 4 reps",148.009
same,log2FoldChange Lgals3,"gene Lgals3, vs vehicle, 4 reps",3.47
same,MeanFenamidone Lhfp,"gene Lhfp, DESeq mean, 4 reps",460.237
same,log2FoldChange Lhfp,"gene Lhfp, vs vehicle, 4 reps",1.564
same,MeanFenamidone,gene Lhx6,36.2637
same,log2FoldChange,gene Lhx6,-1.466
same,MeanFenamidone Lif,"gene Lif, DESeq mean, 4 reps",71.2282
same,log2FoldChange Lif,"gene Lif, vs vehicle, 4 reps",2.278
same,MeanFenamidone Lima1,"gene Lima1, DESeq mean, 4 reps",304.711
same,log2FoldChange Lima1,"gene Lima1, vs vehicle, 4 reps",2.122
same,MeanFenamidone Lipa,"gene Lipa, DESeq mean, 4 reps",195.186
same,log2FoldChange Lipa,"gene Lipa, vs vehicle, 4 reps",1.701
same,MeanFenamidone,gene Lpp,386.544
same,log2FoldChange,gene Lpp,2.227
same,MeanFenamidone,gene Lrig1,287.461
same,log2FoldChange,gene Lrig1,1.313
same,MeanFenamidone Lrp2,"gene Lrp2, DESeq mean, 4 reps",218.41
same,log2FoldChange Lrp2,"gene Lrp2, vs vehicle, 4 reps",3.259
same,MeanFenamidone Lrp5,"gene Lrp5, DESeq mean, 4 reps",104.9
same,log2FoldChange Lrp5,"gene Lrp5, vs vehicle, 4 reps",2.141
same,MeanFenamidone Lrrk1,"gene Lrrk1, DESeq mean, 4 reps",150.568
same,log2FoldChange Lrrk1,"gene Lrrk1, vs vehicle, 4 reps",2.538
same,MeanFenamidone Lrrk2,"gene Lrrk2, DESeq mean, 4 reps",55.3056
same,log2FoldChange Lrrk2,"gene Lrrk2, vs vehicle, 4 reps",2.7898
same,MeanFenamidone Lsm11,"gene Lsm11, DESeq mean, 4 reps",253.873
same,log2FoldChange Lsm11,"gene Lsm11, vs vehicle, 4 reps",-1.609
same,MeanFenamidone Lzts1,"gene Lzts1, DESeq mean, 4 reps",28.4823
same,log2FoldChange Lzts1,"gene Lzts1, vs vehicle, 4 reps",-2.067
same,MeanFenamidone Maff,"gene Maff, DESeq mean, 4 reps",142.888
same,log2FoldChange Maff,"gene Maff, vs vehicle, 4 reps",2.5091
same,MeanFenamidone,gene Man2b1,147.398
same,log2FoldChange,gene Man2b1,1.707
same,MeanFenamidone,gene Map9,691.478
same,log2FoldChange,gene Map9,-1.0525
same,MeanFenamidone Mapkapk3,"gene Mapkapk3, DESeq mean, 4 reps",109.426
same,log2FoldChange Mapkapk3,"gene Mapkapk3, vs vehicle, 4 reps",2.329
same,MeanFenamidone Mdk,"gene Mdk, DESeq mean, 4 reps",140.699
same,log2FoldChange Mdk,"gene Mdk, vs vehicle, 4 reps",2.08
same,MeanFenamidone,gene Mdm2,455.963
same,log2FoldChange,gene Mdm2,1.1
same,MeanFenamidone Mllt11,"gene Mllt11, DESeq mean, 4 reps",1306.3
same,log2FoldChange Mllt11,"gene Mllt11, vs vehicle, 4 reps",-1.396
same,MeanFenamidone Mpp6,"gene Mpp6, DESeq mean, 4 reps",437.651
same,log2FoldChange Mpp6,"gene Mpp6, vs vehicle, 4 reps",1.381
same,MeanFenamidone Msn,"gene Msn, DESeq mean, 4 reps",1825.06
same,log2FoldChange Msn,"gene Msn, vs vehicle, 4 reps",2.348
same,MeanFenamidone Mturn,"gene Mturn, DESeq mean, 4 reps",252.358
same,log2FoldChange Mturn,"gene Mturn, vs vehicle, 4 reps",-1.427
same,MeanFenamidone Myh9,"gene Myh9, DESeq mean, 4 reps",944.67
same,log2FoldChange Myh9,"gene Myh9, vs vehicle, 4 reps",2.571
same,MeanFenamidone,gene Myl9,343.782
same,log2FoldChange,gene Myl9,2.6473
same,MeanFenamidone Myl12a,"gene Myl12a, DESeq mean, 4 reps",537.985
same,log2FoldChange Myl12a,"gene Myl12a, vs vehicle, 4 reps",2.298
same,MeanFenamidone,gene Myo9b,246.577
same,log2FoldChange,gene Myo9b,1.347
same,MeanFenamidone Myof,"gene Myof, DESeq mean, 4 reps",104.99
same,log2FoldChange Myof,"gene Myof, vs vehicle, 4 reps",3.761
same,MeanFenamidone Nap1l2,"gene Nap1l2, DESeq mean, 4 reps",81.273
same,log2FoldChange Nap1l2,"gene Nap1l2, vs vehicle, 4 reps",-1.959
same,MeanFenamidone Nap1l3,"gene Nap1l3, DESeq mean, 4 reps",110.395
same,log2FoldChange Nap1l3,"gene Nap1l3, vs vehicle, 4 reps",-1.464
same,MeanFenamidone Narf,"gene Narf, DESeq mean, 4 reps",102.622
same,log2FoldChange Narf,"gene Narf, vs vehicle, 4 reps",-2.14
same,MeanFenamidone,gene Ndrg4,999.172
same,log2FoldChange,gene Ndrg4,-1.28
same,MeanFenamidone Nefl,"gene Nefl, DESeq mean, 4 reps",284.238
same,log2FoldChange Nefl,"gene Nefl, vs vehicle, 4 reps",-1.45
same,MeanFenamidone,gene Neurl1a,95.3821
same,log2FoldChange,gene Neurl1a,-1.321
same,MeanFenamidone Notch1,"gene Notch1, DESeq mean, 4 reps",316.63
same,log2FoldChange Notch1,"gene Notch1, vs vehicle, 4 reps",1.887
same,MeanFenamidone Notch3,"gene Notch3, DESeq mean, 4 reps",258.391
same,log2FoldChange Notch3,"gene Notch3, vs vehicle, 4 reps",2.018
same,MeanFenamidone Npnt,"gene Npnt, DESeq mean, 4 reps",335.437
same,log2FoldChange Npnt,"gene Npnt, vs vehicle, 4 reps",1.337
same,MeanFenamidone,gene Npr2,171.686
same,log2FoldChange,gene Npr2,1.617
same,MeanFenamidone,gene Nrep,2228.26
same,log2FoldChange,gene Nrep,-1.081
same,MeanFenamidone,gene Nrg1,57.9878
same,log2FoldChange,gene Nrg1,2.155
same,MeanFenamidone,gene Nrxn3,100.585
same,log2FoldChange,gene Nrxn3,-1.713
same,MeanFenamidone,gene Nsmf,509.681
same,log2FoldChange,gene Nsmf,-1.17
same,MeanFenamidone Nuak2,"gene Nuak2, DESeq mean, 4 reps",199.356
same,log2FoldChange Nuak2,"gene Nuak2, vs vehicle, 4 reps",1.954
same,MeanFenamidone,gene Nup93,78.3583
same,log2FoldChange,gene Nup93,1.518
same,MeanFenamidone Nxph1,"gene Nxph1, DESeq mean, 4 reps",23.0758
same,log2FoldChange Nxph1,"gene Nxph1, vs vehicle, 4 reps",-2.821
same,MeanFenamidone Nxph2,"gene Nxph2, DESeq mean, 4 reps",12.3649
same,log2FoldChange Nxph2,"gene Nxph2, vs vehicle, 4 reps",-2.898
same,MeanFenamidone P2ry2,"gene P2ry2, DESeq mean, 4 reps",92.6995
same,log2FoldChange P2ry2,"gene P2ry2, vs vehicle, 4 reps",2.7714
same,MeanFenamidone,gene Parp3,104.686
same,log2FoldChange,gene Parp3,1.933
same,MeanFenamidone,gene Pcdh9,219.607
same,log2FoldChange,gene Pcdh9,-1.474
same,MeanFenamidone,gene Pcdh17,217.631
same,log2FoldChange,gene Pcdh17,-1.1203
same,MeanFenamidone Pcdh19,"gene Pcdh19, DESeq mean, 4 reps",219.013
same,log2FoldChange Pcdh19,"gene Pcdh19, vs vehicle, 4 reps",-1.519
same,MeanFenamidone,gene Pcdhb9,20.2277
same,log2FoldChange,gene Pcdhb9,-1.874
same,MeanFenamidone Pcyt1b,"gene Pcyt1b, DESeq mean, 4 reps",228.459
same,log2FoldChange Pcyt1b,"gene Pcyt1b, vs vehicle, 4 reps",-1.515
same,MeanFenamidone Pdlim5,"gene Pdlim5, DESeq mean, 4 reps",799.854
same,log2FoldChange Pdlim5,"gene Pdlim5, vs vehicle, 4 reps",2.0349
same,MeanFenamidone Pgm2l1,"gene Pgm2l1, DESeq mean, 4 reps",972.539
same,log2FoldChange Pgm2l1,"gene Pgm2l1, vs vehicle, 4 reps",-1.841
same,MeanFenamidone Phlda3,"gene Phlda3, DESeq mean, 4 reps",537.092
same,log2FoldChange Phlda3,"gene Phlda3, vs vehicle, 4 reps",1.998
same,MeanFenamidone Phldb2,"gene Phldb2, DESeq mean, 4 reps",121.953
same,log2FoldChange Phldb2,"gene Phldb2, vs vehicle, 4 reps",2.252
same,MeanFenamidone,gene Phyh,85.5792
same,log2FoldChange,gene Phyh,1.618
same,MeanFenamidone Piezo1,"gene Piezo1, DESeq mean, 4 reps",449.998
same,log2FoldChange Piezo1,"gene Piezo1, vs vehicle, 4 reps",2.353
same,MeanFenamidone Plcb3,"gene Plcb3, DESeq mean, 4 reps",85.3651
same,log2FoldChange Plcb3,"gene Plcb3, vs vehicle, 4 reps",2.324
same,MeanFenamidone,gene Plec,505.373
same,log2FoldChange,gene Plec,1.462
same,MeanFenamidone Plekha7,"gene Plekha7, DESeq mean, 4 reps",128.547
same,log2FoldChange Plekha7,"gene Plekha7, vs vehicle, 4 reps",1.951
same,MeanFenamidone Plekhg2,"gene Plekhg2, DESeq mean, 4 reps",436.894
same,log2FoldChange Plekhg2,"gene Plekhg2, vs vehicle, 4 reps",2.353
same,MeanFenamidone Plxnb2,"gene Plxnb2, DESeq mean, 4 reps",1959.53
same,log2FoldChange Plxnb2,"gene Plxnb2, vs vehicle, 4 reps",1.762
same,MeanFenamidone,gene Pnma2,202.102
same,log2FoldChange,gene Pnma2,-1.217
same,MeanFenamidone,gene Ppard,113.665
same,log2FoldChange,gene Ppard,1.493
same,MeanFenamidone Ppm1e,"gene Ppm1e, DESeq mean, 4 reps",435.513
same,log2FoldChange Ppm1e,"gene Ppm1e, vs vehicle, 4 reps",-1.5474
same,MeanFenamidone Pqlc3,"gene Pqlc3, DESeq mean, 4 reps",109.637
same,log2FoldChange Pqlc3,"gene Pqlc3, vs vehicle, 4 reps",2.1113
same,MeanFenamidone Prkcg,"gene Prkcg, DESeq mean, 4 reps",26.526
same,log2FoldChange Prkcg,"gene Prkcg, vs vehicle, 4 reps",-1.929
same,MeanFenamidone,gene Prkcz,141.39
same,log2FoldChange,gene Prkcz,-1.24
same,MeanFenamidone,gene Prrt2,169.168
same,log2FoldChange,gene Prrt2,-1.281
same,MeanFenamidone,gene Prss23,845.081
